System: 22RV1-FOLH1-oe cells
Assay: In vitro cell uptake of 68Ga complexes over time in 22RV1-FOLH1-oe cells
Assay type: cell-based
Conditions: for uptake-time profile (course of cellular uptake with prolonged incubation time): 37 KBq, 37° C., 15-120 minutes
Method: (§1) […] A 500 μL aliquot was added to each well of six 12-well plates. Each group of wells was treated with 37 KBq of [^68Ga]Ga-AAZTA-NI-PSMA, [^68Ga]Ga-AAZTA-NI-PSMA-11, and [^68Ga]Ga-HBED-CC-PSMA-11 solution. Incubation proceeded at 37° C. At 15, 30, 60, 90, and 120 minutes, uptake was terminated with PBS. Cells were lysed with 1 M NaOH, and lysates were absorbed onto filter paper for radioactivity measurement in plastic tubes. Blocking was performed at 60 minutes using excess unlabeled PSMA-11. After incubation, uptake was terminated with PBS, cells were lysed with 1 M NaOH, and lysates were absorbed onto filter paper for radioactivity measurement in plastic tubes.
(§2) 22RV1-FOLH1-oe cells were suspended at a density of 1.5×10^5 cells/mL. A 500 μL aliquot was added to each well of six 12-well plates. Each group of wells was treated with 37 KBq of [^68Ga]Ga-AAZTA-NI-PSMA, [^68Ga]Ga-DOTA-NI-PSMA, [^68Ga]Ga-HBED-CC-NI-PSMA, and [^68Ga]Ga-HBED-CC-PSMA-11 solution. Incubation proceeded at 37° C. At 15, 30, 60, 90, and 120 minutes, uptake was terminated with PBS. Cells were lysed with 1 M NaOH, and lysates were absorbed onto filter paper for radioactivity measurement in plastic tubes. Blocking was performed at 60 minutes using excess unlabeled PSMA-11. After incubation, uptake was terminated with PBS, cells were lysed with 1 M NaOH, and lysates were absorbed onto filter paper for radioactivity measurement in plastic tubes.
as §1, with “three” for “six”, “[^68Ga]Ga-AAZTA-NI-PSMA-093” for “[^68Ga]Ga-AAZTA-NI-PSMA, [^68Ga]Ga-AAZTA-NI-PSMA-11,”
as §2, with “2×10^5” for “1.5×10^5”, “the following solutions: [^68Ga]Ga-HBED-CC-PSMA-11, [^68Ga]Ga-NI-HBED-CC-PSMA-11, [^68Ga]Ga-HBED-CC-PSMA-093,” for “[^68Ga]Ga-AAZTA-NI-PSMA, [^68Ga]Ga-DOTA-NI-PSMA, [^68Ga]Ga-HBED-CC-NI-PSMA,”, “[^68Ga]Ga-NI-HBED-CC-PSMA-093.” for “[^68Ga]Ga-HBED-CC-PSMA-11 solution.”

In the case of `O=C([O-])CN(CCN(CC(=O)[O-])Cc1cc(CCC(=O)NCCCCCC(=O)NCCCC[C@H](NC(=O)N[C@@H](CCC(=O)O)C(=O)O)C(=O)O)ccc1[O-])Cc1cc(CCC(=O)O)ccc1[O-].[68Ga+3].[OH3+]` [[^68Ga]Ga-HBED-CC-PSMA-11], the “uptake-time profile (course of cellular uptake with prolonged incubation time)” value (shortened to “uptake-time profile”) (Application Embodiment 1, 1×10^5 cells/mL, n=3 (FIG. 12)) is reported as “initially increased and subsequently decreased”, the “cellular uptake compared with the other radioactive metal complexes” value (Application Embodiment 1, versus [^68Ga]Ga-AAZTA-NI-PSMA and [^68Ga]Ga-AAZTA-NI-PSMA-11, all time points) is reported as “significantly higher” and the “uptake-time profile” value (Application Embodiment 2, 1.5×10^5 cells/mL, n=3 (FIG. 14)) is reported as “initially increased and subsequently decreased”. For the same molecule, the “uptake-time profile” value (Application Embodiment 3, 1×10^5 cells/mL, n=3 (FIG. 16)) was “initially increased and subsequently decreased” and the “uptake-time profile” value (Application Embodiment 4, 2×10^5 cells/mL, n=3 (FIG. 18)) was “gradually increased”.

— patent US20250367332A1, “PSMA-TARGETED RADIOACTIVE METAL COMPLEX CONTAINING NITROAROMATIC HETEROCYCLIC GROUP AND PREPARATION METHOD” (BEIJING NORMAL UNIVERSITY, priority 2023, published 2025)
